Measured values from patent US20230355558A1 (priority 2022, published 2023).

Test system: SARS-CoV-2
Assay type: cell-based

NCC1CCC(C(=O)[O][Ca][O]C(=O)C2CCC(CN)CC2)CC1 (stereo not shown) [Ca-TA, Calcium bis-tranexamate]
antiviral efficacy against SARS-CoV-2 infections and its emerging variants: desired antiviral efficacy
